The test has as its system MC3T3-E1 cells. In words: Cell attachment and growth on modified (HA-coated, periodate-oxidized) surfaces carrying bioactive agents. The class given is cell-based, murine. The note with it: for cell attachment and growth: FIG. 4A, immobilized HA surface treated with lowest (3 mM) periodate concentration, collagen 3.2 mg/ml, laminin 2 mg/ml. An excerpt: MC3T3-E1 cells were used to determine the effect of different bioactive agents for creation of bioactive surfaces influencing the growth and differentiation of these osteoblasts (also considered to be osteogenic stem cells). These cells are from a clonal line of murine calvaria-derived osteoblast (establishment of a clonal osteogenic cell line from newborn mouse calvaria describe in J Oral Biol 23:899 (1981)). The cells are maintained in α-MEM (GIBCO Catalog #12561) supplemented with 2% fetal calf serum (FCS; inactivated) and 100 units or μg/ml penicillin/streptomycin.
The cells were seeded at a concentration of approximately 10^4 cells/20 ml culture medium in a 250 ml canted neck polystyrene tissue culture-treated flask. Cells were cultured until they reach about 2×10^6 cells/flask. Cells were harvested and resuspended in 5 ml of α-MEM with 2% FCS to a final cell concentration of about 4×10^4 cells/100 μl.
The surface modified slide was placed into a polystyrene Petri dish and covered with the cells for 30 minutes. […] To quantitate cell attachment and growth, an image of the slide or other surface after staining with hematoxylin/eosin was captured using a color scanner, and the density determined using the Scion Image analysis program.

Take “Arg-Gly-Asp-Ser-Pro (RGDSP) (printed: Arg-Gly-Asp-Ser-Pro) [ECM adhesion peptide from AnaSpec Inc, reference compound]”: the “cell growth on ECM peptide surface vs. control surface” value (FIGS. 4B-4F, RGDSP 1 mg/ml deposited on oxidized HA surface) is recorded as “cells grew only on the surfaces onto which RGDSP was deposited”.
On to laminin, for which the “cell attachment and growth” value is “supported cell attachment and growth”. In addition, the “cell density on bioactive agent” value (FIG. 2, cells grown on microarray of bioactive agents coupled to HA surface, fluorescent staining) is recorded as “cell density was greater on Vitrogen™ than on laminin”.
With collagen, the “cell attachment and growth” value is “supported cell attachment and growth”.
